IC50 data for one compound are collected here from BindingDB's records for doi:10.1021/jm000409z (Dupont Pharmaceuticals, 2001).

The target in the assay is Complement factor I (Homo sapiens) (UniProt P05156). Description: In vitro activity against human Complement factor I.
Sequence of Complement factor I (Homo sapiens) (P05156 whole entry, looked up): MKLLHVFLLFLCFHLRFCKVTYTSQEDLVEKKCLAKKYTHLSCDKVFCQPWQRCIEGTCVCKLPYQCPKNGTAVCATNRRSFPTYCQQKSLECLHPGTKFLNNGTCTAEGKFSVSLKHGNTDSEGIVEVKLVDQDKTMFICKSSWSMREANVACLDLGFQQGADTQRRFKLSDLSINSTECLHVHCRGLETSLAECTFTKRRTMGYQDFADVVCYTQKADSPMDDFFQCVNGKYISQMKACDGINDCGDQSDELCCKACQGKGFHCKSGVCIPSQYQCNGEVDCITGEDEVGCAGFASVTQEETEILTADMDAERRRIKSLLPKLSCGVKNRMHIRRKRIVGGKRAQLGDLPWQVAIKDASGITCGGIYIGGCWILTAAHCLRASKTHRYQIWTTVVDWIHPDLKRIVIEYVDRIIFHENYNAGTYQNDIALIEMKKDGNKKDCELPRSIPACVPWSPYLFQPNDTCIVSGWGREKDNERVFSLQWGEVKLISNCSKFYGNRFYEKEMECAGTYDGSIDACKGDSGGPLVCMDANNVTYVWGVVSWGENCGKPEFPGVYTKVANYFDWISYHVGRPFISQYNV

Consider `CS(=O)(=O)c1ccccc1-c1ccc(NC(=O)c2cc(C(F)(F)F)nn2-c2cccc(CN)c2)c(F)c1`, for which the IC50 amounted to 44 µM.

A word on the IC50: it is the midpoint of a concentration-inhibition curve. A high value points to lower potency.
